The source of these data is patent US11844791B2, “Use of antagonists and/or inverse agonists of CB1 receptors for preparing medicaments for treating fatigue post-viral fatigue syndrome” (FUNDACION HOSPITAL NACIONAL DE PARAPÉJICOS, priority 2020, dated 2023).

Structures are written as SMILES.

For data set [1] the following is noted: as previously described; cited from earlier work.
In another data set the test system is healthy volunteers. Put plainly: Tolerability and adverse effects of a single Rimonabant dose in healthy volunteers. The class given is in vivo, human. The settings on record: single dose 20 mg. As to the method:
(§1) Neurophysiological examination was performed before and 24 hours after the administration of a single dose of 20 mg of Rimonabant.
(§2) Nine healthy volunteers (mean age±S.D. 32.1±5.8 years) participated in all experiments. All the subjects gave their written informed consent.
Hitherto, three subjects experienced agitation and anxiety (this effect lasted an average of 6 hours) and one suffered for nausea (for 24 hours).

In data set [2] the test system is human motor system (motor cortex and spinal motor neurons). Put plainly: Transcranial magnetic stimulation: MEP amplitude in first dorsal interosseous muscle before and 24 hours after a single Rimonabant dose. Particulars: healthy subjects, 24 hours after single dose Rimonabant 20 mg; MEP at 120% RMT, FDI at rest; baseline 1.1±0.6 mV; paired T test p=0.02. In kind it is in vivo. As to the method:
The aim of the present experiments was to use transcranial magnetic stimulation to test the effects of a single dose of 20 mg of Rimonabant on the excitability of motor cortex and of spinal motor neurons.
as §1
Using transcranial magnetic stimulation (TMS), it was evaluated the thresholds for electromyographic responses in the first dorsal interosseous muscle (FDI) at rest and during voluntary contraction.
as §2
Magnetic stimulation was performed using a high-power Magstim 200 magnetic stimulator (Magstim Co., Whitland, UK). A figure-of-eight coil with external loop diameters of 9 cm was held over the right motor cortex at the optimum scalp position to elicit motor responses in the contralateral first dorsal interosseous (FDI). The induced current flowed in a postero-anterior direction. Resting motor threshold (RMT) was defined as the minimum stimulus intensity that produced a liminal motor evoked response (about 50 μV in 50% of 10 trials) at rest. The main variables we test is the RMT and MEP amplitude before and 24 hours after the Rimonabant 20 mg. MEP amplitude was obtained at 120% RMT. […]

As to `Cc1c(C(=O)NN2CCCCC2)nn(-c2ccc(Cl)cc2Cl)c1-c1ccc(Cl)cc1` [Rimonabant, N-(piperidino-1-yl)-5-(4-chlorophenyl)-1-(2,4-dichlorophenyl)-4-methylpyrazole-3-carboxamide], in data set [1], the Blood-brain barrier penetration result is given as “penetrates the blood-brain barrier”. In addition, in the data set on healthy volunteers (healthy volunteers), the “Average duration of agitation and anxiety” value was found to be 6 h; the Duration of nausea is 24 h; the Effects on vigilance result is listed as “moderate”. In the data set on healthy volunteers (of nine healthy volunteers), the “Subjects who experienced agitation and anxiety” value is listed as “three”; the “Subjects who suffered nausea” value is “one”. Further, in data set [2], the “MEP amplitude (motor system excitability), mean±S.D.” value was determined as 2.1±1.2 mV.
